Experimental findings from patent US12686668B2, “Leukotriene synthesis inhibitors” (Naegis Pharmaceuticals Inc., priority 2019, dated 2026) are described below.

The assay concerns LPS-induced neutrophil infiltration into the lung. In words: Lipopolysaccharide (LPS) mouse lung inflammation model. It counts as in vivo, CD-1 mice. The following applies: 10 mg/kg oral, 1 hr before and 2 hrs after LPS 2.5 mg/kg intratracheal, BAL 6 hr post-LPS. As for the experimental part:
In this model, LPS was instilled into the lungs of mice to induce a neutrophilia in the lung tissue. The neutrophilia can be measured in the BAL fluid during lung lavage at various times after challenge with LPS. The neutrophilia develops with a significant increase in cells in the BAL after 6 hrs and achieves a maximum response by 24 hrs. CD-1 mice received lipopolysaccharide (LPS) 2.5 mg/kg in phosphate buffered saline (PBS) or PBS in a volume of 50 μL by intracheal instillation into the lung. The animals were lightly anesthetized using isofluorane to enable application of the LPS. When anesthetized the animals were placed on a board at an angle of 45°. The tongue was rolled to one side and LPS was administered directly into the trachea in a volume of 50 μL. The animal remained in position for 1-2 minutes to ensure the LPS remained in the lung. At the end of the LPS challenge time, animals were euthanized by an overdose of isofluorane. The trachea was exposed and the lungs were intubated using a 21 G catheter tube. The lungs were lavaged with 2×1 mL of PBS at room temperature. […] The differential cell counts were determined using an automated cell counter (Abraxia) set to measure mouse cells. Cell concentration of the resuspended sample was expressed as total cells recovered in the total volume of recovered BAL. […]

In the case of `CCC(O)(CCc1ccc(Oc2nc3c(SC)cccc3s2)c(OC)c1)C(F)(F)F` (stereo not shown) [Compound 104, 1-{3-methoxy-4-[(4-methylsulfanyl-1,3-benzothiazol-2-yl)oxy]phenyl}-3-(trifluoromethyl)pentan-3-ol], the “Effect on LPS-induced neutrophil infiltration into the lung (BAL)” value is on record as “inhibitory effect”.
